Measured values: US9901538B2, “Personal care composition containing yeast/polyphenol ferment extract” (priority 2008, dated 2018)

Tested on: Pichia pastoris
Experiment: 2-Dimensional gel electrophoresis of yeast protein expression
Type: cell-based
Settings: 2D gel, 626 spots analyzed, FIG. 2 and 3
Experimental: To identify the metabolic changes in the yeast because of the polyphenol feed-strategy, 2-Dimensional gel electrophoreses and gene microarray analysis was conducted on the control, (i.e., a yeast extract without resveratrol growth factor), and a yeast-resveratrol ferment extract produced by the process of the present invention. The first dimension IEF focuses on separation of the proteins based on their isoelectric points and was conducted using the EttanIPGphor system with a manifold for protein loading. The 2nd dimension SDS-PAGE is an electrophoretic method for separating polypeptides according to their molecular weights using the DALT VI Electrophoresis Unit (GE-Amersham, Piscataway N.J.) (2, 6). To remove interfering substances and impurities, the yeast cell extracts were purified using the 2D Clean-up kit provided by GE Amersham. Each purified yeast sample was rehydrated overnight with Thiourea rehydration solution (7M Urea and 2M Thiourea, 2% Chaps, 0.5% Pharmalyte). The rehydrated samples were loaded onto the 1st dimension IEF. […]
FIG. 3 illustrates the laser densitometer comparison of the control versus the yeast/resveratrol of the invention. Reference spot numbering, pI, and MW are given for changing polypeptide spots and analyzed in the samples. […] A total of 626 spots were analyzed.

## Oc1ccc(/C=C/c2cc(O)cc(O)c2)cc1 [resveratrol, 3,4,5-transhydroxystilbene]
  proteomic changes of the yeast versus untreated control: significant proteomic changes
